Measurements from publication doi:10.1101/2025.08.08.668114, “Structure-Activity Relationship Studies Towards Analogues of Pleconaril as Novel Enterovirus-D68 Capsid-Targeting Antivirals” (bioRxiv, 2025).
Converted amounts (≈) assume the structure as drawn. Like-named read-outs stand apart in the source and are kept apart here.

What was measured:
[1] = Kinetic aqueous solubility (KSOL), shake-flask method
P-gp (human MDR1) [2] = test: in vitro; settings: dog, MDCK-MDR1, MDCKII-MDR1 Papp A→B
in vitro = settings: human
physchem = settings: kinetic from dmso stock
[3] = tested on: EV-D68 (strain US/MO/14-18949); test: EV-D68 antiviral screening assay in RD cells
[4] = LogD at pH 7.4, shake-flask method; settings: for logD: pH 7.4
[5] = Mouse microsomal stability; settings: pH 7.4
[6] = Human microsomal stability; settings: for microsomal CLint at 2 µM: human, pH 7.4
RD cells = test: RD cell cytotoxicity by MTT assay on uninfected cells; settings: geometric mean
[7] = tested on: human pregnane-X receptor (PXR); parameters: method as in PMID 37327878; settings: cited from earlier work
[8] = tested on: cytochrome P450 (CYP) enzyme; parameters: method as in PMID 37327878; settings: cited from earlier work
[9] = tested on: MDCKII cells transfected with human MDR1 (P-gp); settings: dog, MDCK-MDR1
EV-D68 = settings: in-vitro; read-out: Published EV-D68 EC50; cited from earlier work
[10] = tested on: cytochrome P450 (CYP) enzyme; parameters: method as in PMID 12802751; settings: after repeated dosing; cited from earlier work
[11] = tested on: MDCKII cells transfected with human MDR1 (P-gp); test: MDCKII-MDR1 A→B permeability; settings: apical to basolateral
P-gp (human MDR1) [12] = test: MDCKII-MDR1 A→B permeability; settings: dog, MDCK-MDR1
[13] = Enterovirus D, EVD68, RD, read-out: EC50 EV-D68, RD cells, strain US/MO/14-18949, geometric mean
[14] = Enterovirus D, EVD68, RD, read-out: EV-D68 pEC50, pEC50 = −log10(EC50) (converted), RD cells

Papp A→B (P-gp (human MDR1) [2])	solubility kinetic (physchem)	EC50 [3, 13]	logD [4]	microsomal CLint at 2 µM ([5]; liver microsomes)	microsomal CLint at 2 µM ([6]; liver microsomes)	SMILES	CC50 (in vitro; RD cells, uninfected)	other results
4 ×10⁻⁶ cm/s	< 10 µM	0.437 µM	4.2	38 µL/min/mg	24 µL/min/mg	Cc1cc(-c2noc(C(F)(F)F)n2)ccc1O[C@@H]1CCN(c2cc(C(=O)N(C)C)no2)C1 [Compound 33]	> 50 µM	Solubility, Kinetic (KSOL) [1]: 9 µM (≈ 4.06 µg/mL)
2.5 ×10⁻⁶ cm/s	< 10 µM	0.058 µM	4.2	41 µL/min/mg	22 µL/min/mg	Cc1cc(-c2noc(C(F)(F)F)n2)ccc1O[C@H]1CCN(c2cc(C(=O)N(C)C)no2)C1 [Compound 34]	> 50 µM	Solubility, Kinetic (KSOL) [1]: 7 µM (≈ 3.16 µg/mL); EC50 [3, 14]: 0.0589 µM; fold more potent than 33 (EV-D68) ([3]; relative to enantiomer 33): 10 fold
		> 30.4 µM				Cc1cc(-c2noc(C(F)(F)F)n2)ccc1OCCNc1cc(C(=O)N(C)C)no1 [Compound 24]	> 50 µM	
		2.87 µM				CN(C)C(=O)c1cc(CCCn2ccc3cc(C#N)ccc32)on1 [Compound 25]	> 50 µM	
		4.87 µM				CN(C)C(=O)c1cc(-c2cccc(Oc3ccc(-c4noc(C(F)(F)F)n4)cc3)c2)on1 [Compound 31]	> 50 µM	
						CCO/N=C/c1ccc(OCCC2CCN(c3ccc(C)nn3)CC2)cc1 [Compound S-57, BTA-188]		CC50 (RD cells): > 50 µM
	198 µM (≈ 61.8 µg/mL)		3.1			C#CCc1ccc(OCCCc2cc(C(=O)N(C)C)no2)cc1 [Compound 55]		EC50 [3, 14]: 0.617 µM
3.5 ×10⁻⁶ cm/s	30 µM (≈ 13 µg/mL)	8.43 µM	3	29 µL/min/mg	20 µL/min/mg	CN(C)C(=O)c1cc(CCCn2ccc3cc(-c4noc(C(F)(F)F)n4)ncc32)on1 [Compound 30]	> 100 µM	
		4.35 µM				Cc1cc(-c2noc(C(F)(F)F)n2)ccc1Oc1cncc(-c2cc(C(=O)N(C)C)no2)c1 [Compound 32]	> 50 µM	
15.5 ×10⁻⁶ cm/s	28 µM (≈ 12.2 µg/mL)	1.89 µM	3.8	133 µL/min/mg	30 µL/min/mg	CN(C)C(=O)c1cc(CCCn2ccc3cc(-c4noc(C(F)(F)F)n4)cnc32)on1 [Compound 29]	> 100 µM	
						Nc1nc(-c2ccccc2)nc2[nH]nc(Nc3ccc(C(F)(F)F)cc3)c12 [Compound S-60, OBR-5-340, reference compound]		MDCKII-MDR1 Papp A→B [11]: 1.8 10^−6 cm s^−1; Solubility, Kinetic (KSOL) [1]: 2 µM (≈ 0.741 µg/mL); CC50 (RD cells): > 50 µM; EC50 ([3]; read-out: EC50 EV-D68, RD cells, strain US/MO/14-18949, geometric mean): 7.16 µM; LogD (pH 7.4) ([4]; pH 7.4, shake-flask): ≥ 4.5; Clint HLM ([6]; human liver microsomes): < 10 µL/min/mg
						Cc1nc(-c2ccc(OCCCCCN3CCN(c4ccnc(N)c4)C3=O)cc2)no1 [Compound S-59, NLD-22]		CC50 (RD cells): > 25.6 µM
						Cc1cc(-c2noc(C(F)(F)F)n2)ccc1OCCCc1nnc(C(F)(F)F)o1 [Compound 38]	> 50 µM	EC50 ([3]; Enterovirus D, EVD68, RD, read-out: EC50 EV-D68 (Table 4), RD cells, Table 4 head): 39.9 µM

SMILES	Papp A→B (P-gp (human MDR1) [2])	solubility kinetic (physchem)	EC50 [3, 13]	logD [4]	microsomal CLint at 2 µM ([5]; liver microsomes)	microsomal CLint at 2 µM ([6]; liver microsomes)	CC50 (in vitro; RD cells, uninfected)	other results
Cc1cc(-c2noc(C(F)(F)F)n2)ccc1OCCCc1cc(C(=O)N(C)C)no1 [Compound 2, CP-11526092, reference compound]	2.3 ×10⁻⁶ cm/s	9 µM (≈ 3.82 µg/mL)	0.043 µM	≥ 4.5	24 µL/min/mg	11 µL/min/mg	> 42 µM	agonism of human PXR [7]: Neither 1 nor 2 are agonists; CYP induction according to in-vitro data [8]: still present; CC50 (RD cells; listed as CP-11526092 (2)): > 50 µM; MDCKII-MDR1 Papp A→B [9]: 2.26 10^−6 cm s^−1; EC50 (EV-D68): 0.042 µM; EC50 [3, 14]: 0.0437 µM; Lipophilic Cellular Efficiency (LipCellE) ([3]; cellular pEC50 − AlogP98): > 3
Cc1cc(CCCOc2c(C)cc(-c3noc(C(F)(F)F)n3)cc2C)on1 [Compound 1, Pleconaril]	1.4 ×10⁻⁶ cm/s	18 µM (≈ 6.86 µg/mL)	< 0.0295 µM	4.2	22 µL/min/mg		> 50 µM	CYP induction (side effect) [10]: well-known side effect; agonism of human PXR [7]: Neither 1 nor 2 are agonists; MDCKII-MDR1 Papp A→B [9]: 1.42 10^−6 cm s^−1; EC50 (EV-D68): 0.43 µM; EC50 ([3]; read-out: EC50 EV-D68, RD cells, strain US/MO/14-18949, geometric mean, listed as Pleconaril (1)): < 0.029 µM; microsomal CLint at 2 µM ([6]; microsomes): 12 µL/min/mg
CCOC(=O)c1ccc(OCCC2CCN(c3ccc(C)nn3)CC2)cc1 [Compound S-58, Pirodavir, reference compound]			0.277 µM					Papp A→B (P-gp (human MDR1) [12]): 9 ×10⁻⁶ cm/s; CC50 (in vitro): > 50 µM; microsomal CLint at 2 µM ([5]; microsomes): 580 µL/min/mg; microsomal CLint at 2 µM ([6]; microsomes): 708 µL/min/mg
